Measurements as given in the NIST ThermoML archive (doi:10.1021/je400408w).

Assay: molar heat capacity at constant pressure; xn = mol fraction of the nth substance listed
Settings: 100 kPa, Liquid

Cc1ccccc1Cl [2-chlorotoluene] + CN1CCCC1=O
molar heat capacity at constant pressure [J/K/mol]
Settings	293.15 K	298.15 K	303.15 K
x2 = 0	176.43	178.21	180.01
x2 = 0.0766	177.61	179.54	181.65
x2 = 0.1176	178.19	180.12	182.31
x2 = 0.1545	178.64	180.7	182.82
x2 = 0.1932	179.13	181.09	183.22
x2 = 0.2387	179.69	181.63	183.63
x2 = 0.2768	180.04	181.98	183.93
x2 = 0.3121	180.38	182.21	184.15
x2 = 0.3543	180.68	182.53	184.34
x2 = 0.3871	180.8	182.64	184.39
x2 = 0.4267	180.94	182.73	184.44
x2 = 0.4653	180.97	182.78	184.48
x2 = 0.5065	180.95	182.72	184.39
x2 = 0.5412	180.74	182.59	184.2
x2 = 0.5849	180.46	182.25	183.84
x2 = 0.6219	180.05	181.77	183.46
x2 = 0.6618	179.44	181.22	182.89
x2 = 0.7064	178.51	180.31	182.03
x2 = 0.7417	177.61	179.4	181.15
x2 = 0.7817	176.49	178.16	179.97
x2 = 0.8213	175.04	176.75	178.4
x2 = 0.8543	173.73	175.32	176.97
x2 = 0.8886	172.09	173.57	175.14
x2 = 0.9133	170.81	172.18	173.6
x2 = 0.9476	168.91	170.02	171.22

CN1CCCC1=O [N-methylpyrrolidone] + Cc1ccccc1Cl
x1 = 1
Settings	molar heat capacity at constant pressure [J/K/mol]
293.15 K	165.44
298.15 K	166.22
303.15 K	166.92

CN1CCCC1=O [N-methylpyrrolidone] + Cc1ccc(Cl)cc1
x1 = 1
Settings	molar heat capacity at constant pressure [J/K/mol]
293.15 K	165.44
298.15 K	166.22
303.15 K	166.92
